Four compounds from patent publication US20090181986A1, “SUBSTITUTED HETEROCYCLIC COMPOUNDS” (priority 2007, published 2009) can be followed below.

In one data set the target is hERG potassium channel (Homo sapiens, UniProt Q12809). In words: hERG screening assay (PatchXpress patch clamp, CHO cells).
Data set [1] concerns the target T1, human cardiac L-type calcium channels (hCav1.2, coexpressed with the beta 2 subunit) (Homo sapiens, UniProt Q13936).
T1 construct: expressed in transfected cells
In words: L-type calcium channel patch clamp screening assay (ICaL, HEK293). The class given is cell-based. The settings on record: hCav1.2 in HEK293, percentage of current inhibited at steady state; for ICaL Patch Clamp Assay 1 μM % blk: 1 μM test compound; for ICaL Patch Clamp Assay 10 μM % blk: 10 μM test compound. The protocol:
Compounds are screened to test for block of human cardiac L-type calcium channels (hCav1.2, encoded by the human CACNA1C gene and coexpressed with the beta 2 subunit, encoded by the human CACNB2 gene) expressed in an HEK293 cell line. Stable transfectants were selected using antibiotic resistance genes incorporated into the expression plasmids and selection pressure is maintained with selection antibiotics added to the culture medium. Cells are cultured using standard tissue culture methods for HEK293 cells.
Cells are harvested for addition to a PatchXpress automated patch clamp system. The external solution contains: 137 mM NaCl; 4 mM KCl; 1.8 mM CaCl2; 1 mM MgCl2; […]; 10 mM Glucose (pH adjusted to 7.4 with NaOH). The internal solution contains: 130 mM Cs Aspartate; 5 mM MgCl2; 5 mM EGTA; 4 mM ATP; 0.1 mM GTP; 10 mM HEPES (pH adjusted to 7.2 with N-methyl-D-glucamine).
Onset of block and steady state block of hCav1.2 channels are monitored using a stimulus voltage pattern consisting of a depolarizing test pulse (duration, 200 ms; amplitude, 10 mV) at 10s intervals from a −80 mV holding potential (FIG. 5). Test compound concentrations (1 μM and 10 μM) are applied cumulatively in ascending order without washout between applications. Peak current is measured during the step to 10 mV. A saturating concentration of nifedipine (10 μM) is added at the end of each experiment to completely block hCav1.2 current and verify sensitivity to channel blockade. Leakage current is measured after nifedipine addition and digitally subtracted from the total membrane current record. Each compound is applied to naive cells and each concentration is applied four times for a total exposure duration of five (5) minutes per concentration.
Test compound stock solutions are prepared in dimethyl sulfoxide (DMSO) and stored frozen. Test compound concentrations are prepared fresh daily by diluting stock solutions into the external HEPES-buffered physiological saline solution described above. […] Each test compound formulation is sonicated (Model 2510/5510, Branson Ultrasonics, Danbury, Conn.), at ambient room temperature for at least 20 minutes to facilitate dissolution. In preparation for the recording session, a glass-lined 96-well compound plate is loaded with the appropriate amounts of test and control solutions, and placed in the plate well of PatchXpress® (Model 7000A, MDS Analytical Technologies, Sunnyvale, Calif.).
Data acquisition and analyses are performed using conventional software. Steady state is defined by the limiting constant rate of change with time (linear time dependence). The steady state before and after test compound application is used to calculate the percentage of current inhibited at each concentration.

T1 sequence (Q13936 whole entry): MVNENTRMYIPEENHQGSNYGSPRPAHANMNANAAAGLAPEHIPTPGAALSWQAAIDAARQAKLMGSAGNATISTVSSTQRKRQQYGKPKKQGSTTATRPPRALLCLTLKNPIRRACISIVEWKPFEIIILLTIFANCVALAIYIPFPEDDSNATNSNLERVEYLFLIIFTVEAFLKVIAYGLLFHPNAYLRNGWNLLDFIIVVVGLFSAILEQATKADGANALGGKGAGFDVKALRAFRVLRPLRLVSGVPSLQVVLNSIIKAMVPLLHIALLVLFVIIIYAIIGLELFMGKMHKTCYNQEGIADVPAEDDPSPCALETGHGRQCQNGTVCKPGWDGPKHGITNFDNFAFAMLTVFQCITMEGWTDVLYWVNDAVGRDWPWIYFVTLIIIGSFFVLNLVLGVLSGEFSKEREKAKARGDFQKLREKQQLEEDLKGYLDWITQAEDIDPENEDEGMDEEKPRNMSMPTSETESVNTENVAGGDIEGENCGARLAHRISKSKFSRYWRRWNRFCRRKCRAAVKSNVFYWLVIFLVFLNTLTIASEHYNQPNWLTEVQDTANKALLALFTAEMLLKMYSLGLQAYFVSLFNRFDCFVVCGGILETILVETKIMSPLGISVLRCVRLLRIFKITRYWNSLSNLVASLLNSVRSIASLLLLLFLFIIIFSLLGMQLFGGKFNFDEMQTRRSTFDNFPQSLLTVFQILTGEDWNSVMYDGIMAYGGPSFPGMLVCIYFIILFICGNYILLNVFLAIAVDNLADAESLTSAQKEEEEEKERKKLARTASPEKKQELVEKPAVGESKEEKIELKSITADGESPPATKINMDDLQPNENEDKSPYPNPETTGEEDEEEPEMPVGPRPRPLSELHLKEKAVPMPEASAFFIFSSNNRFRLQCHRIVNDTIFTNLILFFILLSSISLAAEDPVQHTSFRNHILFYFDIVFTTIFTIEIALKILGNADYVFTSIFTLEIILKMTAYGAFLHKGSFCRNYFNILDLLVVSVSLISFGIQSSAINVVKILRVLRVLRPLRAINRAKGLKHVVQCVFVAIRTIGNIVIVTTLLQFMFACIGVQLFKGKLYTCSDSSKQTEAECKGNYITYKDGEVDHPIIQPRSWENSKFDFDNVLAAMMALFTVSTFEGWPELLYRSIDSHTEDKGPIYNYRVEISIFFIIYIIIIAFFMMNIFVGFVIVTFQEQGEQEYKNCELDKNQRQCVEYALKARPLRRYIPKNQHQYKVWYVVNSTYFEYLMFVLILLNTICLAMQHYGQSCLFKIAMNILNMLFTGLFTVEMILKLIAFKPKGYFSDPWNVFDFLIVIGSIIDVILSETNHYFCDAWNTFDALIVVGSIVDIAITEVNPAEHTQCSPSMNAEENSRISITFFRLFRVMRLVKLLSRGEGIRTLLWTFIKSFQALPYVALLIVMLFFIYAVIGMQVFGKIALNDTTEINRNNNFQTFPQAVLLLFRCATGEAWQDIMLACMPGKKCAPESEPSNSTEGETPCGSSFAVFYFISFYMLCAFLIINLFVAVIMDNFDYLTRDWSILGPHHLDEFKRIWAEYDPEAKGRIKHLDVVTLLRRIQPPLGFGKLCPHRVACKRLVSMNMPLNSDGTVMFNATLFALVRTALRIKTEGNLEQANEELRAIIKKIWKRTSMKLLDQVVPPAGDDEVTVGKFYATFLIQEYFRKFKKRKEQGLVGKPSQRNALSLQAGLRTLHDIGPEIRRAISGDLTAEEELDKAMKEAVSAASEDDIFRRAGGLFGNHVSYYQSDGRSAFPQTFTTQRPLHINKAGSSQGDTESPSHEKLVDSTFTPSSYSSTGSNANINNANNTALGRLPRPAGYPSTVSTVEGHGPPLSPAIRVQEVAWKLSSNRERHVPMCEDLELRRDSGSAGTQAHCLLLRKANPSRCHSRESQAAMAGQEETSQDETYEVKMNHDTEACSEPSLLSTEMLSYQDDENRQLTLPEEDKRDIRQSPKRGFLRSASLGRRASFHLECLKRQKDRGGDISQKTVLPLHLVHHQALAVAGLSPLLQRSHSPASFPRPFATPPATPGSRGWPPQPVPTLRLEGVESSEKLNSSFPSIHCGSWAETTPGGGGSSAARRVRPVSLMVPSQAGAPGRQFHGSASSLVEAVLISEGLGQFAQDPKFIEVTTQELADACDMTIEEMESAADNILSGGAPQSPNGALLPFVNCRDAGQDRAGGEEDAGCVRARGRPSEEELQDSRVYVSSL
T1 sequence (Q08289 whole entry partner): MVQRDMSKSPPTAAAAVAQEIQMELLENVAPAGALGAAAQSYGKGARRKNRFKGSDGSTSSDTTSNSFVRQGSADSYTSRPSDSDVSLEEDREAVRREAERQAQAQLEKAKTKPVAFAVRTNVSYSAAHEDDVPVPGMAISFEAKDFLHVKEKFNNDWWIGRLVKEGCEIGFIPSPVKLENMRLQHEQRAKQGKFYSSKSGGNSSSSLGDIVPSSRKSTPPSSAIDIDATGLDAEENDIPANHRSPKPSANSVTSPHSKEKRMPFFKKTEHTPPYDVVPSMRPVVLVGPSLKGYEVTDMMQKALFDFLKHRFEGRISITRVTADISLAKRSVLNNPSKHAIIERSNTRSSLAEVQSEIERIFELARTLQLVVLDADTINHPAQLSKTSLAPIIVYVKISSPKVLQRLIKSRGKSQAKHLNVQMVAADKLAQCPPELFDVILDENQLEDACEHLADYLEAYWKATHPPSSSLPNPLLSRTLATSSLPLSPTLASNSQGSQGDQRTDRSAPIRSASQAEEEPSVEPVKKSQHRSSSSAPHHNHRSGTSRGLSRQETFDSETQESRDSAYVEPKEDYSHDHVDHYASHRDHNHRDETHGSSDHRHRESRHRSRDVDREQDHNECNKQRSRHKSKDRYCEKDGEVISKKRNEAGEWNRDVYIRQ
Chain of hERG potassium channel (Q12809 whole entry): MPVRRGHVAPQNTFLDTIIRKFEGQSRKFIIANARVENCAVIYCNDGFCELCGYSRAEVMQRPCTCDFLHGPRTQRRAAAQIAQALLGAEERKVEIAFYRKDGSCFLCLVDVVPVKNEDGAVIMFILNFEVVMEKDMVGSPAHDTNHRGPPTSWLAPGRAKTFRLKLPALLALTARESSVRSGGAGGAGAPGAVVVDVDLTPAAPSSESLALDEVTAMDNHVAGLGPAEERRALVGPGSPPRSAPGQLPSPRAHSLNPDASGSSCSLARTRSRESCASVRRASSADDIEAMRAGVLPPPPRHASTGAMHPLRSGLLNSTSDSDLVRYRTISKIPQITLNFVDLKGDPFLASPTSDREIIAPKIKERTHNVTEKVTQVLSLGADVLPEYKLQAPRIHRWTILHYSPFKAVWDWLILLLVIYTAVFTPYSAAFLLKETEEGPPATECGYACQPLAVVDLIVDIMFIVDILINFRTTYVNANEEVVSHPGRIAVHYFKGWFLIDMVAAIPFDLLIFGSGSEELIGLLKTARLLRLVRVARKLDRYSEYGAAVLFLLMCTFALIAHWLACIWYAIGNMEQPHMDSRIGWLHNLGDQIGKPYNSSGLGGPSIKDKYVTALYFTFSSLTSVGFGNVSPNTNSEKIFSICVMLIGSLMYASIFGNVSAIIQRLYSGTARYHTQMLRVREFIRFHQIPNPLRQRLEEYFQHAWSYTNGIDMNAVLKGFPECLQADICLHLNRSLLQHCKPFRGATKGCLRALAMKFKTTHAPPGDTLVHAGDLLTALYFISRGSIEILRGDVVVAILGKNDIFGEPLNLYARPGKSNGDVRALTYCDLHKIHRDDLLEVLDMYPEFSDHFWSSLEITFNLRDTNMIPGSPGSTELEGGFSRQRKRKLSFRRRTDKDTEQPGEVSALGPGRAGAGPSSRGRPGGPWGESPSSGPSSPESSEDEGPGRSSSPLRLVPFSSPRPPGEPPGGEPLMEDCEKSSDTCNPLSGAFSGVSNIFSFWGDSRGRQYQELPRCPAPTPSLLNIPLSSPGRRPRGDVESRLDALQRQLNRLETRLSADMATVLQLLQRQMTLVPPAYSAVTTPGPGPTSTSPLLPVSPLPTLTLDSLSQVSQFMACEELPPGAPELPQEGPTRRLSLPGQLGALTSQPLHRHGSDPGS
Procedure for hERG potassium channel: Compounds were screened to test their activity in blocking the hERG potassium channel. The hERG channel is heterologously expressed in a CHO (Chinese Hamster Ovary) cell line. Cells are maintained with standard tissue culture procedures and stable channel expression is maintained with 500 μg/ml G418 in the culture medium. Cells are harvested for testing on the PatchXpress automated patch clamp with Acctumax (Innovative Cell Technologies, San Diego, Calif.) to isolate single cells.
The following solutions are used for electrophysiological recordings. The external solution contains: 2 mM CaCl2; 2 mM MgCl2; 4 mM KCl; 150 mM NaCl; 10 mM Glucose; 10 mM HEPES (pH 7.4 with 1M NaOH, osmolarity).
hERG channels are activated when the voltage is stepped to +20 mV from the −80 mV holding potential (see FIG. 3). During a 5 second step at +20 mV, the channels activate and then largely inactivate, so the currents are relatively small. Upon returning to −50 mV from +20 mV, hERG currents transiently become much larger as inactivation is rapidly removed and then the channel closes. The first step to −50 mV for 300 ms is used as a baseline for measuring the peak amplitude during the step to −50 mV after channel activation. The peak current at −50 mV is measured both under control conditions and after addition of compound.
All compounds are prepared as 10 mM DMSO stocks in glass vials. Stock solutions are mixed by vigorous vortexing and sonication for about 2 minutes at room temperature. For testing, compounds are diluted in glass vials using an intermediate dilution step in pure DMSO and then further diluted to working concentrations in external solution. Dilutions are prepared no longer than 20 minutes before use.
After achieving the whole-cell configuration, cells are monitored for 90 seconds to assess stability and washed with external solution for 66 seconds. The voltage protocol described above is then applied to the cells every 12 seconds and throughout the whole procedure. Only cells with stable recording parameters and meeting specified health criteria are allowed to enter the compound addition procedure.
External solution containing 0.1% DMSO (vehicle) is applied to the cells first to establish the control peak current amplitude. After allowing the current to stabilize for 3 to 5 minutes, 1 μM and then 10 μM test compounds are applied. Each compound concentration is added 4 times and cells are kept in test solution until the effect of the compound reaches steady state or for a maximum of 12 minutes. […] Washout in the external solution compartment is performed until the recovery of the current reaches steady state. Data are analyzed using DataXpress, Clampfit (Molecular Devices, Inc., Sunnyvale) and Origin 7 (Originlab Corp.)

In the case of `CC1=C(C(=O)OCc2ccccc2)C(c2ccc(N(C)C)cc2[N+](=O)[O-])n2nnnc2N1` (stereo not drawn) [PT-409, benzyl 7-(4-(dimethylamino)-2-nitrophenyl)-5-methyl-4,7-dihydrotetrazolo[1,5-a]pyrimidine-6-carboxylate], on hERG potassium channel, the “hERG Patch Clamp hERG % blk (1 μM test cmpd)” value turned out to be 27% and the “hERG Patch Clamp hERG % blk (10 μM test cmpd)” value came out at 78.5%. Also, in data set [1], the “ICaL Patch Clamp Assay 1 μM % blk” value is 2.7% and the “ICaL Patch Clamp Assay 10 μM % blk” value was found to be 19.9%.
For `CCOC(=O)C1=C(C)NC(C)=C(C(=O)OCC)C1c1ccccc1Br` [PT-430, diethyl 4-(2-bromophenyl)-2,6-dimethyl-1,4-dihydropyridine-3,5-dicarboxylate] the same measures were 10%, 21.5%, 91.8% and 98.6%.
With `CCOC(=O)C1=C(C)NC(C)=C(C(=O)OCC)C1c1ccc(OC)cc1C#N` [PT-431, diethyl 4-(2-cyano-4-methoxyphenyl)-2,6-dimethyl-1,4-dihydropyridine-3,5-dicarboxylate], in data set [1], the “ICaL Patch Clamp Assay 1 μM % blk” value amounted to 3.7% and the “ICaL Patch Clamp Assay 10 μM % blk” value was 2.4%.
In the case of `CCOC(=O)C1=C(C)NC(C)=C(C(=O)OCC)C1c1ccc(N(C)C)cc1[N+](=O)[O-]` [PT-437, diethyl 4-(4-(dimethylamino)-2-nitrophenyl)-2,6-dimethyl-1,4-dihydropyridine-3,5-dicarboxylate], in data set [1], the “ICaL Patch Clamp Assay 1 μM % blk” value was −0.1% and the “ICaL Patch Clamp Assay 10 μM % blk” value amounted to 13.2%.
